# Data: the OligoGym collection
# Several values for one entry are separate records, joined by “and”; a condition that tells them apart may be missing. Equal values may be shown once. HELM strings list units from the 5' end as sugar, base in round brackets, then linkage (d deoxyribose, r ribose, m 2'-O-methyl, p phosphodiester). Strings are as the collection lists them, not checked against the first reports. ss, as = sense and antisense strand; [lna] = locked nucleic acid (LNA); [s4r] = 4'-thioribose; [fl2r] = 2'-fluoro
# Details: siRNA
# Also: test system not given here.
row,Substance,target mRNA knockdown
1,RNA1{r(G)p.[fl2r](A)p.r(A)p.r(A)p.[fl2r](C)p.[fl2r](U)p.r(G)p.r(G)p.[fl2r](U)p.[fl2r](A)p.[fl2r](C)p.[fl2r](U)p.[fl2r](U)p.[fl2r](U)p.[fl2r](C)p.[fl2r](C)p.[fl2r](C)p.[fl2r](C)p.[fl2r](C)p.r(T)p.r(T)}|RNA2{r(G)p.r(G)p.r(G)p.r(G)p.r(G)p.r(A)p.r(A)p.r(A)p.r(G)p.r(U)p.r(A)p.r(C)p.r(C)p.r(A)p.r(G)p.r(U)p.r(U)p.r(U)p.r(C)p.r(T)p.r(T)}$$$RNA1{StrandType:ss}|RNA2{StrandType:as}$,60%
2,RNA1{r(A)p.m(U)p.r(A)p.r(C)p.r(U)p.m(U)p.m(G)p.r(G)p.r(C)p.r(G)p.r(G)p.r(G)p.m(C)p.r(U)p.r(C)p.r(U)p.r(U)p.r(U)p.r(C)p.r(T)p.r(T)}|RNA2{r(G)p.r(A)p.r(A)p.r(A)p.r(G)p.r(A)p.r(G)p.r(C)p.r(C)p.r(C)p.r(G)p.r(C)p.m(C)p.r(A)p.r(A)p.r(G)p.m(U)p.r(A)p.r(U)p.r(T)p.r(T)}$$$RNA1{StrandType:ss}|RNA2{StrandType:as}$,70%
3,RNA1{r(A)p.r(U)p.m(C)p.r(A)p.m(C)p.r(A)p.r(A)p.r(A)p.r(C)p.r(C)p.r(C)p.r(C)p.r(U)p.r(A)p.r(G)p.r(A)p.r(G)p.r(G)p.r(G)p.r(T)p.r(T)}|RNA2{r(C)p.r(C)p.r(C)p.r(U)p.r(C)p.m(U)p.r(A)p.r(G)p.r(G)p.r(G)p.r(G)p.r(U)p.r(U)p.r(U)p.r(G)p.m(U)p.r(G)p.r(A)p.r(U)p.r(T)p.r(T)}$$$RNA1{StrandType:ss}|RNA2{StrandType:as}$,75%
4,RNA1{r(A)p.m(A)p.r(G)p.m(G)p.r(A)p.m(G)p.r(A)p.m(U)p.r(C)p.m(A)p.r(A)p.m(C)p.r(A)p.m(U)p.r(U)p.m(U)p.r(U)p.m(C)p.r(A)p.r(T)p.r(T)}|RNA2{r(U)p.m(G)p.r(A)p.m(A)p.r(A)p.m(A)p.r(U)p.m(G)p.r(U)p.m(U)p.r(G)p.m(A)p.r(U)p.m(C)p.r(U)p.m(C)p.r(C)p.m(U)p.r(U)p.r(T)p.r(T)}$$$RNA1{StrandType:ss}|RNA2{StrandType:as}$,61%
5,RNA1{r(G)p.r(G)p.r(A)p.r(G)p.r(C)p.m(U)p.m(A)p.r(G)p.r(A)p.r(C)p.r(G)p.r(G)p.r(G)p.m(U)p.r(A)p.r(C)p.r(G)p.r(A)p.r(G)p.r(T)p.r(T)}|RNA2{r(C)p.r(U)p.r(C)p.r(G)p.r(U)p.r(A)p.r(C)p.r(C)p.r(C)p.r(G)p.r(U)p.r(C)p.m(U)p.r(A)p.r(G)p.r(C)p.r(U)p.r(C)p.r(C)p.r(T)p.r(T)}$$$RNA1{StrandType:ss}|RNA2{StrandType:as}$,81%
6,RNA1{[s4r](C)p.r(G)p.[s4r](U)p.r(A)p.[s4r](C)p.r(G)p.[s4r](C)p.r(G)p.r(G)p.r(A)p.r(A)p.[s4r](U)p.r(A)p.[s4r](C)p.[s4r](U)p.[s4r](U)p.[s4r](C)p.r(G)p.r(A)p.r(T)p.r(T)}|RNA2{r(U)p.r(C)p.r(G)p.r(A)p.r(A)p.r(G)p.r(U)p.r(A)p.r(U)p.r(U)p.r(C)p.r(C)p.r(G)p.r(C)p.r(G)p.r(U)p.r(A)p.r(C)p.r(G)p.r(T)p.r(T)}$$$RNA1{StrandType:ss}|RNA2{StrandType:as}$,92.9%
7,RNA1{[fl2r](U)p.r(U)p.[fl2r](C)p.r(U)p.[fl2r](A)p.r(A)p.[fl2r](C)p.r(C)p.[fl2r](G)p.r(G)p.[fl2r](G)p.r(C)p.[fl2r](A)p.r(G)p.[fl2r](C)p.r(U)p.[fl2r](U)p.r(C)p.[fl2r](U)p.r(T)p.r(T)}|RNA2{r(A)p.r(G)p.r(A)p.r(A)p.r(G)p.r(C)p.r(U)p.r(G)p.r(C)p.r(C)p.r(C)p.r(G)p.r(G)p.r(U)p.r(U)p.r(A)p.r(G)p.r(A)p.r(A)p.r(T)p.r(T)}$$$RNA1{StrandType:ss}|RNA2{StrandType:as}$,61%
8,RNA1{r(C)p.r(C)p.r(G)p.r(C)p.r(C)p.r(C)p.r(G)p.r(G)p.r(C)p.r(G)p.r(G)p.r(C)p.m(G)p.r(C)p.r(C)p.r(U)p.r(U)p.m(U)p.m(A)p.r(T)p.r(T)}|RNA2{m(U)p.m(A)p.r(A)p.r(A)p.r(G)p.r(G)p.r(C)p.r(G)p.r(C)p.r(C)p.r(G)p.r(C)p.r(C)p.r(G)p.r(G)p.r(G)p.r(C)p.r(G)p.r(G)p.r(T)p.r(T)}$$$RNA1{StrandType:ss}|RNA2{StrandType:as}$,85%
9,RNA1{r(G)p.r(A)p.r(C)p.r(G)p.r(U)p.r(A)p.r(A)p.r(A)p.r(C)p.r(G)p.r(G)p.r(C)p.r(C)p.r(A)p.r(C)p.r(A)p.r(A)p.r(G)p.r(U)p.[lna](T)p.[lna](C)}|RNA2{r(A)p.m(C)p.r(U)p.r(U)p.r(G)p.r(U)p.r(G)p.r(G)p.r(C)p.r(C)p.r(G)p.r(U)p.r(U)p.r(U)p.r(A)p.r(C)p.r(G)p.r(U)p.r(C)p.r(G)p.r(C)}$$$RNA1{StrandType:ss}|RNA2{StrandType:as}$,81%
10,RNA1{m(A)p.r(C)p.m(G)p.r(U)p.m(C)p.r(A)p.m(C)p.r(C)p.m(G)p.r(A)p.m(G)p.r(G)p.m(A)p.r(G)p.m(A)p.r(A)p.m(G)p.r(U)p.m(A)p.r(T)p.r(T)}|RNA2{r(U)p.r(A)p.r(C)p.r(U)p.r(U)p.r(C)p.r(U)p.r(C)p.r(C)p.r(U)p.r(C)p.m(G)p.m(G)p.r(U)p.r(G)p.r(A)p.r(C)p.m(G)p.r(U)p.r(T)p.r(T)}$$$RNA1{StrandType:ss}|RNA2{StrandType:as}$,31%
11,RNA1{r(U)p.r(C)p.r(C)p.m(U)p.r(A)p.r(G)p.r(C)p.r(U)p.r(G)p.r(U)p.r(C)p.r(U)p.r(U)p.r(G)p.r(U)p.r(C)p.r(C)p.r(C)p.r(U)p.r(T)p.r(T)}|RNA2{r(A)p.r(G)p.r(G)p.r(G)p.r(A)p.r(C)p.r(A)p.r(A)p.r(G)p.r(A)p.r(C)p.r(A)p.r(G)p.r(C)p.m(U)p.r(A)p.r(G)p.r(G)p.r(A)p.r(T)p.r(T)}$$$RNA1{StrandType:ss}|RNA2{StrandType:as}$,71%
12,RNA1{r(A)p.r(C)p.r(G)p.r(G)p.r(C)p.r(U)p.r(C)p.r(G)p.r(C)p.r(U)p.[fl2r](A)p.r(C)p.r(C)p.r(C)p.r(U)p.r(C)p.r(G)p.r(A)p.r(C)p.r(T)p.r(T)}|RNA2{r(G)p.r(U)p.r(C)p.r(G)p.r(A)p.r(G)p.r(G)p.r(G)p.r(U)p.r(A)p.r(G)p.r(C)p.r(G)p.r(A)p.r(G)p.r(C)p.r(C)p.r(G)p.r(U)p.r(T)p.r(T)}$$$RNA1{StrandType:ss}|RNA2{StrandType:as}$,83%
13,RNA1{r(G)p.r(G)p.r(A)p.r(A)p.r(G)p.r(A)p.r(A)p.r(G)p.r(A)p.r(U)p.r(A)p.r(G)p.r(A)p.r(G)p.r(C)p.r(A)p.r(U)p.r(C)p.r(C)p.r(T)p.r(T)}|RNA2{r(G)p.r(G)p.r(A)p.r(U)p.r(G)p.r(C)p.r(U)p.r(C)p.[fl2r](U)p.r(A)p.r(U)p.r(C)p.r(U)p.r(U)p.r(C)p.r(U)p.r(U)p.r(C)p.r(C)p.r(T)p.r(T)}$$$RNA1{StrandType:ss}|RNA2{StrandType:as}$,37%
14,RNA1{r(G)p.r(G)p.r(A)p.r(A)p.r(G)p.m(U)p.r(A)p.r(A)p.r(G)p.r(G)p.r(A)p.r(C)p.m(C)p.r(A)p.r(G)p.r(A)p.r(G)p.r(A)p.r(C)p.r(T)p.r(T)}|RNA2{r(G)p.r(U)p.r(C)p.r(U)p.r(C)p.m(U)p.r(G)p.r(G)p.r(U)p.r(C)p.r(C)p.r(U)p.m(U)p.r(A)p.r(C)p.r(U)p.r(U)p.r(C)p.r(C)p.r(T)p.r(T)}$$$RNA1{StrandType:ss}|RNA2{StrandType:as}$,41%
15,RNA1{r(G)p.r(A)p.r(C)p.[fl2r](C)p.r(A)p.r(C)p.r(G)p.r(A)p.r(A)p.r(G)p.r(A)p.r(G)p.r(U)p.[fl2r](U)p.r(A)p.r(A)p.r(C)p.r(C)p.r(C)p.r(T)p.r(T)}|RNA2{r(G)p.r(G)p.r(G)p.r(U)p.[fl2r](U)p.r(A)p.r(A)p.r(C)p.r(U)p.r(C)p.r(U)p.r(U)p.r(C)p.r(G)p.[fl2r](U)p.r(G)p.r(G)p.r(U)p.r(C)p.r(T)p.r(T)}$$$RNA1{StrandType:ss}|RNA2{StrandType:as}$,85%
16,RNA1{[fl2r](A)p.r(G)p.[fl2r](U)p.r(U)p.[fl2r](A)p.r(A)p.[fl2r](C)p.r(C)p.[fl2r](C)p.r(G)p.[fl2r](G)p.r(G)p.[fl2r](A)p.r(C)p.[fl2r](U)p.r(U)p.[fl2r](G)p.r(G)p.[fl2r](A)p.r(T)p.r(T)}|RNA2{r(U)p.r(C)p.r(C)p.r(A)p.r(A)p.r(G)p.r(U)p.r(C)p.r(C)p.r(C)p.r(G)p.r(G)p.r(G)p.r(U)p.r(U)p.r(A)p.r(A)p.r(C)p.r(U)p.r(T)p.r(T)}$$$RNA1{StrandType:ss}|RNA2{StrandType:as}$,65%
17,RNA1{r(U)p.r(C)p.r(G)p.r(G)p.r(G)p.r(A)p.r(A)p.r(A)p.r(U)p.r(U)p.r(U)p.r(C)p.r(U)p.r(C)p.r(U)p.r(A)p.r(U)p.r(U)p.r(A)p.d(T)p.d(T)}|RNA2{r(U)p.r(A)p.r(A)p.r(U)p.r(A)p.r(G)p.r(A)p.r(G)p.r(A)p.r(A)p.r(A)p.r(U)p.r(U)p.r(U)p.r(C)p.r(C)p.r(C)p.r(G)p.r(A)p.d(T)p.d(T)}$$$RNA1{StrandType:ss}|RNA2{StrandType:as}$,94% and 80%
18,RNA1{r(G)p.r(A)p.r(U)p.r(U)p.r(C)p.m(C)p.r(A)p.r(A)p.r(A)p.r(C)p.r(C)p.r(C)p.r(C)p.r(A)p.r(C)p.m(U)p.r(A)p.r(U)p.r(C)p.r(T)p.r(T)}|RNA2{r(G)p.r(A)p.r(U)p.r(A)p.r(G)p.r(U)p.r(G)p.r(G)p.r(G)p.r(G)p.r(U)p.r(U)p.r(U)p.r(G)p.r(G)p.r(A)p.r(A)p.r(U)p.r(C)p.r(T)p.r(T)}$$$RNA1{StrandType:ss}|RNA2{StrandType:as}$,67%
19,RNA1{r(A)p.r(G)p.r(C)p.r(U)p.r(C)p.r(U)p.r(U)p.r(U)p.r(G)p.r(U)p.r(C)p.m(A)p.r(C)p.r(C)p.r(U)p.r(C)p.r(U)p.r(C)p.r(U)p.r(T)p.r(T)}|RNA2{r(A)p.r(G)p.r(A)p.r(G)p.r(A)p.r(G)p.r(G)p.r(U)p.r(G)p.r(A)p.m(C)p.m(A)p.r(A)p.r(A)p.r(G)p.r(A)p.r(G)p.r(C)p.r(U)p.r(T)p.r(T)}$$$RNA1{StrandType:ss}|RNA2{StrandType:as}$,37%
20,RNA1{r(A)p.r(G)p.r(U)p.m(U)p.r(A)p.r(A)p.r(C)p.r(C)p.r(C)p.r(G)p.r(G)p.r(G)p.r(A)p.r(C)p.r(U)p.r(U)p.r(G)p.r(G)p.r(A)p.r(T)p.r(T)}|RNA2{r(U)p.r(C)p.m(C)p.r(A)p.r(A)p.r(G)p.r(U)p.r(C)p.r(C)p.r(C)p.r(G)p.r(G)p.r(G)p.r(U)p.r(U)p.r(A)p.r(A)p.r(C)p.r(U)p.r(T)p.r(T)}$$$RNA1{StrandType:ss}|RNA2{StrandType:as}$,91%
